{"source": "patent US20170001990A1", "about": "(Genentech, Inc., priority 2014, published 2017)"}
{"biological_target": "Human recombinant carboxy-terminal his-tagged LDHA (amino acids 2-332) (Homo sapiens, UniProt P00338)", "experiment": "LDHA enzyme inhibition assay (NADH fluorescence)", "details": "LDHA IC50 (μM), 1 nM LDHA, NADH and pyruvate, stereochemistry of tested sample given", "units": {"IC50": "µM"}}
{"smiles": "O=C1CC(c2ccsc2)(c2cccc(OCCC3CCC3)n2)NC(=O)C1Sc1ccccc1Cl", "note": "(single isomer, unassigned) [Example 141, 3-(2-chlorophenyl)sulfanyl-6-[6-(2-cyclobutyl-ethoxy)-2-pyridyl]-6-(3-thienyl)piperidine-2,4-dione]", "IC50": 0.003}
{"smiles": "O=C1CC(c2ccsc2)(c2cccc(OCCCC(F)(F)F)n2)NC(=O)C1Sc1ccccc1Cl", "note": "(single isomer, unassigned) [Example 142, 3-(2-chlorophenyl)sulfanyl-6-(3-thienyl)-6-[6-(4,4,4-trifluorobutoxy)-2-pyridyl]piperidine-2,4-dione]", "IC50": 0.031}
{"smiles": "O=C1CC(c2ccsc2)(c2cccc(Oc3ccc(F)c(Br)c3)n2)NC(=O)C1Sc1ccccc1Cl", "note": "(single isomer, unassigned) [Example 143, 6-[6-(3-bromo-4-fluoro-phenoxy)-2-pyridyl]-3-(2-chlorophenyl)sulfanyl-6-(3-thienyl)piperidine-2,4-dione]", "IC50": 0.033}
{"smiles": "O=C1CC(c2ccsc2)(c2cccc(Oc3ccc(F)c(C(F)(F)F)c3)n2)NC(=O)C1Sc1ccccc1Cl", "note": "(single isomer, unassigned) [Example 144, 3-(2-chlorophenyl)sulfanyl-6-[6-[4-fluoro-3-(trifluoromethyl)phenoxy]-2-pyridyl]-6-(3-thienyl) piperidine-2,4-dione]", "IC50": 0.143}
{"smiles": "CC(C)(O)CCOc1cccc(C2(c3ccsc3)CC(=O)C(Sc3ccccc3Cl)C(=O)N2)n1", "note": "(single isomer, unassigned) [Example 145, 3-(2-chlorophenyl)sulfanyl-6-[6-(3-hydroxy-3-methyl-butoxy)-2-pyridyl]-6-(3-thienyl)piperidine-2,4-dione]", "IC50": 0.088}
{"smiles": "O=C1CC(c2ccsc2)(c2cccc(Cc3cc(F)cc(F)c3)n2)NC(=O)C1Sc1ccccc1Cl", "note": "(single isomer, unassigned) [Example 146, 3-(2-chlorophenyl)sulfanly-6-[6-[(3,5-difluorophenyl)methyl]-2-pyridyl]-6-(3-thienyl)piperidine-2,4-dione]", "IC50": 0.189}
{"smiles": "O=C1CC(c2ccsc2)(c2cccc(OCCCC(F)(F)F)n2)NC(=O)C1Sc1ccccc1Cl", "note": "(single isomer, unassigned) [Example 148, 3-(2-chlorophenyl)sulfanyl-6-(3-thienyl)-6-[6-(4,4,4-trifluorobutoxy)-2-pyridyl]piperidine-2,4-dione]", "IC50": 0.014}
{"smiles": "O=C1CC(c2ccsc2)(c2cccc(Oc3ccc(F)c(Br)c3)n2)NC(=O)C1Sc1ccccc1Cl", "note": "(single isomer, unassigned) [Example 149, 6-[6-(3-bromo-4-fluoro-phenoxy)-2-pyridyl]-3-(2-chlorophenyl)sulfanyl-6-(3-thienyl)piperidine-2,4-dione]", "IC50": 0.069}
{"smiles": "CC(C)(O)CCOc1cccc(C2(c3ccsc3)CC(=O)C(Sc3ccccc3Cl)C(=O)N2)n1", "note": "(single isomer, unassigned) [Example 155, 3-(2-chlorophenyl)sulfanyl-6-[6-(3-hydroxy-3-methyl-butoxy)-2-pyridyl]-6-(3-thienyl)piperidine-2,4-dione]", "IC50": 0.025}
{"smiles": "COc1cc(F)cc(Cc2cccc(C3(c4ccsc4)CC(=O)C(Sc4ccccc4Cl)C(=O)N3)n2)c1", "note": "(single isomer, unassigned) [Example 156, 3-(2-chlorophenyl)sulfanyl-6-[6-[(3-fluoro-5-methoxy-phenyl)methyl]-2-pyridyl]-6-(3-thienyl) piperidine-2,4-dione]", "IC50": 0.072}
{"smiles": "O=C1CC(c2ccsc2)(c2cccc(OC3CCCCC3)n2)NC(=O)C1Sc1ccccc1Cl", "note": "(single isomer, unassigned) [Example 157, 3-(2-chlorophenyl)sulfanyl-6-[6-(cyclohexoxy)-2-pyridyl]-6-(3-thienyl) piperidine-2,4-dione]", "IC50": 0.03}
{"smiles": "CC1(COc2cccc(C3(c4ccsc4)CC(=O)C(Sc4ccccc4Cl)C(=O)N3)n2)CC1", "note": "(single isomer, unassigned) [Example 158, 3-(2-chlorophenyl)sulfanyl-6-[6-[(1-methylcyclo-propyl)methoxy]-2-pyridyl]-6-(3-thienyl)piperidine-2,4-dione]", "IC50": 0.018}
{"smiles": "CC(Oc1cccc(C2(c3ccsc3)CC(=O)C(Sc3ccccc3Cl)C(=O)N2)n1)C1CC1", "note": "(single isomer, unassigned) [Example 159, 3-((2-chlorophenyl)thio)-6-(6-(1-cyclopropyl-ethoxy)pyridin-2-yl)-6-(thiophen-3-yl)piperidine-2,4-dione]", "IC50": 0.004}
{"smiles": "O=C1CC(c2ccsc2)(c2cccc(Sc3ccc(F)cc3)n2)NC(=O)C1Sc1ccccc1Cl", "note": "(single isomer, unassigned) [Example 160, 3-(2-chlorophenyl)sulfanyl-6-[6-(4-fluorophenyl)sulfanyl-2-pyridyl]-6-(3-thienyl)piperidine-2,4-dione]", "IC50": 0.008}
{"smiles": "O=C1CC(c2ccsc2)(c2cccc(OCCC3CCCCC3)n2)NC(=O)C1Sc1ccccc1Cl", "note": "(single isomer, unassigned) [Example 161, 3-(2-chlorophenyl)sulfanyl-6-[6-(2-cyclohexylethoxy)-2-pyridyl]-6-(3-thienyl) piperidine-2,4-dione]", "IC50": 0.019}
{"smiles": "O=C1CC(c2ccsc2)(c2cccc(OCC3CCOCC3)n2)NC(=O)C1Sc1ccccc1Cl", "note": "(single isomer, unassigned) [Example 163, 3-((2-chlorophenyl)thio)-6-(6-((tetrahydro-2H-pyran-4-yl)methoxy)pyridin-2-yl)-6-(thiophen-3-yl)piperidine-2,4-dione]", "IC50": 0.194}
{"smiles": "O=C1CC(c2ccsc2)(c2cccc(OCC3CC(F)(F)C3)n2)NC(=O)C1Sc1ccccc1Cl", "note": "(single isomer, unassigned) [Example 165]", "IC50": 0.004}
{"smiles": "O=C1CC(c2ccsc2)(c2cccc(OCCC3CCC3)n2)NC(=O)C1Sc1ccccc1Cl", "note": "(single isomer, unassigned) [Example 168, 3-(2-chlorophenyl)sulfanyl-6-[6-(2-cyclobutylethoxy)-2-pyridyl]-6-(3-thienyl) piperidine-2,4-dione]", "IC50": 0.19}
{"smiles": "CC(C)(O)CCOc1cccc(C2(c3ccsc3)CC(=O)C(Sc3ccccc3Cl)C(=O)N2)n1", "note": "(single isomer, unassigned) [Example 170, 3-(2-chlorophenyl)sulfanyl-6-[6-(3-hydroxy-3-methyl-butoxy)-2-pyridyl]-6-(3-thienyl)piperidine-2,4-dione]", "IC50": 0.145}
{"smiles": "COc1cc(F)cc(Cc2cccc(C3(c4ccsc4)CC(=O)C(Sc4ccccc4Cl)C(=O)N3)n2)c1", "note": "(single isomer, unassigned) [Example 171, 3-(2-chlorophenyl)sulfanyl-6-[6-[(3-fluoro-5-methoxy-phenyl)methyl]-2-pyridyl]-6-(3-thienyl) piperidine-2,4-dione]", "IC50": 0.101}
{"smiles": "O=C1CC(c2ccsc2)(c2cccc(Oc3ccccc3Br)n2)NC(=O)C1Sc1ccccc1Cl", "note": "(single isomer, unassigned) [Example 172, 6-[6-(2-bromophenoxy)-2-pyridyl]-3-(2-chloro-phenyl)sulfanyl-6-(3-thienyl)piperidine-2,4-dione]", "IC50": 0.056}
{"smiles": "O=C1CC(c2ccsc2)(c2cccc(Oc3cc(F)cc(CO)c3)n2)NC(=O)C1Sc1ccccc1Cl", "note": "(single isomer, unassigned) [Example 176, 3-(2-chlorophenyl)sulfanyl-6-[6-[3-fluoro-5-(hydroxymethyl)phenoxy]-2-pyridyl]-6-(3-thienyl) piperidine-2,4-dione]", "IC50": 0.01}
{"smiles": "O=C1CC(c2ccsc2)(c2cccc(Cc3ccccc3)n2)NC(=O)C1Sc1ccccc1Cl", "note": "(single isomer, unassigned) [Example 180, 6-(6-benzyl-2-pyridyl)-3-(2-chlorophenyl)sulfanyl-6-(3-thienyl)piperidine-2,4-dione]", "IC50": 0.002}
{"smiles": "O=C1CC(c2ccsc2)(c2cccc(OC3CCCCC3)n2)NC(=O)C1Sc1ccccc1Cl", "note": "(single isomer, unassigned) [Example 181, 3-(2-chlorophenyl)sulfanyl-6-[6-(cyclohexoxy)-2-pyridyl]-6-(3-thienyl) piperidine-2,4-dione]", "IC50": 0.006}
{"smiles": "CC1(COc2cccc(C3(c4ccsc4)CC(=O)C(Sc4ccccc4Cl)C(=O)N3)n2)CC1", "note": "(single isomer, unassigned) [Example 182, 3-(2-chlorophenyl)sulfanyl-6-[6-[(1-methylcyclo-propyl)methoxy]-2-pyridyl]-6-(3-thienyl)piperidine-2,4-dione]", "IC50": 0.056}
{"smiles": "CC(Oc1cccc(C2(c3ccsc3)CC(=O)C(Sc3ccccc3Cl)C(=O)N2)n1)C1CC1", "note": "(single isomer, unassigned) [Example 184, 3-(2-chlorophenyl)sulfanyl-6-[6-(1-cyclopropylethoxy)-2-pyridyl]-6-(3-thienyl) piperidine-2,4-dione]", "IC50": 0.002}
{"smiles": "O=C1CC(c2ccsc2)(c2cccc(OCCC3CCCCC3)n2)NC(=O)C1Sc1ccccc1Cl", "note": "(single isomer, unassigned) [Example 185, 3-(2-chlorophenyl)sulfanyl-6-[6-(2-cyclohexylethoxy)-2-pyridyl]-6-(3-thienyl) piperidine-2,4-dione]", "IC50": 0.055}
{"smiles": "O=C1CC(c2ccsc2)(c2cccc(OCC3CCOCC3)n2)NC(=O)C1Sc1ccccc1Cl", "note": "(single isomer, unassigned) [Example 187, 3-(2-chlorophenyl)sulfanyl-6-[6-(tetrahydropyran-4-ylmethoxy)-2-pyridyl]-6-(3-thienyl)piperidine-2,4-dione]", "IC50": 0.025}
{"smiles": "O=C1CCC(COc2cccc(C3(c4ccsc4)CC(=O)C(Sc4ccccc4Cl)C(=O)N3)n2)O1", "note": "(single isomer, unassigned) [Example 192, 3-(2-chlorophenyl)sulfanyl-6-[6-[(5-oxotetrahydrofuran-2-yl)methoxy]-2-pyridyl]-6-(3-thienyl)piperidine-2,4-dione]", "IC50": 0.232}
{"smiles": "O=C1CCC(COc2cccc(C3(c4ccsc4)CC(=O)C(Sc4ccccc4Cl)C(=O)N3)n2)O1", "note": "(single isomer, unassigned) [Example 193, 3-(2-chlorophenyl)sulfanyl-6-[6-[(5-oxotetrahydrofuran-2-yl)methoxy]-2-pyridyl]-6-(3-thienyl)piperidine-2,4-dione]", "IC50": 0.059}
